ChEMBL document CHEMBL5046215, “Heparan Sulfate Mimetics Differentially Affect Homologous Chemokines and Attenuate Cancer Development” (J Med Chem, 2021)
pKd: −log10 of the molar value. Activity calls are given as the source filed them. The rule behind the calls is not given here.

Legend:
[1] = target: T1, Stromal cell-derived factor 1 (Homo sapiens, UniProt P48061); assay: Binding affinity to human CXCL12 at 100 uM by glycan microarray analysis
[2] = species: Homo sapiens; assay: Binding affinity to human CCL28 at 100 uM by glycan microarray analysis
[3] = target: T2, C-C motif chemokine 2 (Homo sapiens, UniProt P13500); assay: Binding affinity to human CCL2 at 100 uM by glycan microarray analysis
Target sequence in this assay (P13500 24-99 limits assumed): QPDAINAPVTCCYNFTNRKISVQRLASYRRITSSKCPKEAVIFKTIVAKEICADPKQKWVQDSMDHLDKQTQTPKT

[4] = target: C-X-C motif chemokine 10 (Homo sapiens) (UniProt P02778); assay: Binding affinity to human CXCL10 at 100 uM by glycan microarray analysis
[5] = target: T3, C-C motif chemokine 5 (Homo sapiens) (UniProt P13501); assay: Binding affinity to human CCL5 at 100 uM by glycan microarray analysis
T3 sequence (whole entry): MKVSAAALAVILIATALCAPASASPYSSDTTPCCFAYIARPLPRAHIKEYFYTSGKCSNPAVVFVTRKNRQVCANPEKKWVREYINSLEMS

[6] = species: Homo sapiens; assay: Binding affinity to human CCL13 at 100 uM by glycan microarray analysis
[7] = target: C-C motif chemokine 7 (Homo sapiens) (UniProt P80098); assay: Binding affinity to human CCL7 at 100 uM by glycan microarray analysis
[8] = species: Homo sapiens; assay: Binding affinity to human CCL21 at 100 uM by glycan microarray analysis
[9] = target: Interleukin-8 (Homo sapiens) (UniProt P10145); assay: Binding affinity to human CXCL8 at 100 uM by glycan microarray analysis
[10] = test system: MCF7; assay: Antimigratory activity against human MCF7 cells assessed as reduction in cell migration at 10 to 50 ug/ml measured after 5 hrs in presence of CCL2 by wound healing assay relative to control; format: functional; conditions: dose 10-50 µg/ml
[11] = target: T3, C-C motif chemokine 5 (Homo sapiens); assay: Binding affinity to human CCL5 assessed as on-rate constant incubated for 3 mins by surface plasmon resonance analysis
[12] = target: T4, C-X-C motif chemokine 10 (Homo sapiens, UniProt P02778); assay: Binding affinity to human CXCL10 assessed as dissociation constant incubated for 3 mins by surface plasmon resonance analysis
T4 sequence (P02778 whole entry): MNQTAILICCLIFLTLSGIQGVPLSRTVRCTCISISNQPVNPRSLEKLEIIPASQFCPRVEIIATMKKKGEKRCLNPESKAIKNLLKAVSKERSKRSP

[13] = target: T2, C-C motif chemokine 2; assay: Binding affinity to human CCL2 assessed as off-rate constant incubated for 3 mins by surface plasmon resonance analysis
Target sequence in this assay (P13500 24-99 limits assumed): as the sequence (P13500 24-99 limits assumed) above

[14] = target: T5, C-C motif chemokine 5 (Homo sapiens, UniProt P13501); assay: Binding affinity to human CCL5 assessed as dissociation constant incubated for 3 mins by surface plasmon resonance analysis
T5 sequence (P13501 whole entry): T3 sequence (whole entry)

[15] = test system: MCF7; assay: Induction of cell cycle arrest in human MCF7 cells assessed as accumulation of cells at G2/M phase incubated for 72 hrs in presence of CCL2 by PI staining based flow cytometric analysis; format: functional
[16] = test system: MCF7; assay: Decrease in MAPK expression in human MCF7 cells at 50 ug/ml measured after 30 mins in presence of CCL2 by Western blot analysis; format: functional, cell-based; conditions: dose 50.0 µg/ml
[17] = test system: MCF7; assay: Anti-proliferative activity against human MCF7 cells assessed as reduction in cell proliferation at 10 to 50 ug/ml compound pretreated with CCL2 followed by incubation with cells and measured after 48 hrs by Sulforhodamine B staining based WST assay; format: functional; conditions: dose 10-50 µg/ml, at 10 to 50 µg/mL
[18] = target: T6, Interleukin-8 (Homo sapiens, UniProt P10145); assay: Binding affinity to human CXCL8 assessed as dissociation constant incubated for 3 mins by surface plasmon resonance analysis
T6 sequence (P10145 whole entry): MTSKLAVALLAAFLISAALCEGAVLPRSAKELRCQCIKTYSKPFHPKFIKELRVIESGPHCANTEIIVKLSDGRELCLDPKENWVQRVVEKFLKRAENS

[19] = target: T2, C-C motif chemokine 2; assay: Binding affinity to human CCL2 assessed as dissociation constant incubated for 3 mins by surface plasmon resonance analysis
Target sequence in this assay (P13500 whole entry): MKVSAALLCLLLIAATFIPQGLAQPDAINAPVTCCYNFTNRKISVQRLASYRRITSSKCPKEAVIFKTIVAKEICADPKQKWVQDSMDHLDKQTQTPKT

[20] = target: Interleukin-8 (Homo sapiens) (UniProt P10145); assay: Binding affinity to human CXCL8 assessed as on-rate constant incubated for 3 mins by surface plasmon resonance analysis
[21] = target: T2, C-C motif chemokine 2; assay: Binding affinity to human CCL2 assessed as on-rate constant incubated for 3 mins by surface plasmon resonance analysis
Target sequence in this assay (P13500 24-99 limits assumed): as the sequence (P13500 24-99 limits assumed) above

[22] = target: T3, C-C motif chemokine 5 (Homo sapiens); assay: Binding affinity to human CCL5 assessed as off-rate constant incubated for 3 mins by surface plasmon resonance analysis
[23] = test system: MDA-MB-231; assay: Anti-proliferative activity against human MDA-MB-231 cells assessed as reduction in cell proliferation at 10 to 50 ug/ml compound pretreated with CCL2 followed by incubation with cells and measured after 48 hrs by Sulforhodamine B staining based WST assay; format: functional; conditions: dose 10-50 µg/ml, at 10 to 50 µg/mL
[24] = target: T1, Stromal cell-derived factor 1; assay: Binding affinity to human CXCL12 assessed as dissociation constant incubated for 3 mins by surface plasmon resonance analysis
[25] = target: Interleukin-8 (Homo sapiens) (UniProt P10145); assay: Binding affinity to human CXCL8 assessed as off-rate constant incubated for 3 mins by surface plasmon resonance analysis
[26] = test system: MCF7; assay: Antiinvasive activity against human MCF7 cells assessed as inhibition of cell invasion at 50 ug/ml measured after 24 hrs in presence of CCL2 by crystal violet staining based Boyden chamber analysis; format: functional; conditions: dose 50.0 µg/ml

C-C motif chemokine 7 (Homo sapiens), sequence (P80098 whole entry): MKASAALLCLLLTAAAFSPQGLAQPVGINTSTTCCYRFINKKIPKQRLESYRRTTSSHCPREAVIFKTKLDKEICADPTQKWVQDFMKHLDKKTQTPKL
T1 sequence (P48061 whole entry): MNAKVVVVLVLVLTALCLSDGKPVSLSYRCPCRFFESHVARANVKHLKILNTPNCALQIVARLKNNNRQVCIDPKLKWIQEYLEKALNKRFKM

| Activity [1] | Activity [2] | Activity [3] | Activity [4] | Activity [5] | Activity [6] | Activity [7] | Activity [8] | Activity [9] | SMILES | other results |
| --- | --- | --- | --- | --- | --- | --- | --- | --- | --- | --- |
| 79% | 84% | 25% | 67% | 38% | 94% | 55% | 71% | 73% | NCCOCCO[C@@H]1O[C@@H](C(=O)O)[C@@H](O[C@@H]2O[C@@H](C(=O)O)[C@@H](OS(=O)(=O)O)[C@H](O)[C@H]2O)[C@H](O)[C@H]1O | – |
| 62% | 46% | 4% | 47% | 2% | 74% | 30% | 52% | 17% | NCCOCCO[C@@H]1O[C@@H](C(=O)O)[C@@H](O)[C@H](O)[C@H]1O | – |
| 98% | 76% | 69% | 96% | 86% | 88% | 87% | 86% | 83% | NCCOCCO[C@@H]1O[C@@H](C(=O)O)[C@@H](O[C@@H]2O[C@@H](C(=O)O)[C@@H](OS(=O)(=O)O)[C@H](O)[C@H]2OS(=O)(=O)O)[C@H](O)[C@H]1OS(=O)(=O)O | – |
| 45% | 54% | 0% | 23% | 10% | 72% | 12% | 60% | 13% | NCCOCCO[C@@H]1O[C@@H](C(=O)O)[C@@H](O[C@@H]2O[C@@H](C(=O)O)[C@@H](O[C@@H]3O[C@@H](C(=O)O)[C@@H](O[C@@H]4O[C@@H](C(=O)O)[C@@H](OS(=O)(=O)O)[C@H](O)[C@H]4O)[C@H](O)[C@H]3O)[C@H](O)[C@H]2O)[C@H](O)[C@H]1O | Activity [10]: inactive |
| 66% | 58% | 2% | 45% | 2% | 82% | 30% | 63% | 12% | NCCOCCO[C@@H]1O[C@@H](C(=O)O)[C@@H](O[C@@H]2O[C@@H](C(=O)O)[C@@H](O)[C@H](O)[C@H]2O)[C@H](O)[C@H]1O | – |
| 38% | 72% | 0% | 24% | 1% | 69% | 17% | 46% | 5% | NCCOCCO[C@@H]1O[C@@H](C(=O)O)[C@@H](O[C@@H]2O[C@@H](C(=O)O)[C@@H](O[C@@H]3O[C@@H](C(=O)O)[C@@H](O)[C@H](O)[C@H]3O)[C@H](O)[C@H]2O)[C@H](O)[C@H]1O | – |
| 82% | 84% | 67% | 74% | 80% | 67% | 79% | 80% | 95% | NCCOCCO[C@@H]1O[C@@H](C(=O)O)[C@@H](O[C@@H]2O[C@@H](C(=O)O)[C@@H](O[C@@H]3O[C@@H](C(=O)O)[C@@H](OS(=O)(=O)O)[C@H](O)[C@H]3OS(=O)(=O)O)[C@H](O)[C@H]2OS(=O)(=O)O)[C@H](O)[C@H]1OS(=O)(=O)O | – |
| 75% | 51% | 66% | 82% | 75% | 53% | 94% | 79% | 71% | NCCOCCO[C@@H]1O[C@@H](C(=O)O)[C@@H](OS(=O)(=O)O)[C@H](O)[C@H]1OS(=O)(=O)O | – |
| 56% | 56% | 2% | 44% | 2% | 67% | 33% | 48% | 12% | NCCOCCO[C@@H]1O[C@@H](C(=O)O)[C@@H](O[C@@H]2O[C@@H](C(=O)O)[C@@H](O[C@@H]3O[C@@H](C(=O)O)[C@@H](O[C@@H]4O[C@@H](C(=O)O)[C@@H](O)[C@H](O)[C@H]4O)[C@H](O)[C@H]3O)[C@H](O)[C@H]2O)[C@H](O)[C@H]1O | – |
| 91% | 72% | 88% | 87% | 91% | 70% | 80% | 50% | 96% | NCCOCCO[C@@H]1O[C@@H](C(=O)O)[C@@H](O[C@@H]2O[C@@H](C(=O)O)[C@@H](O[C@@H]3O[C@@H](C(=O)O)[C@@H](O[C@@H]4O[C@@H](C(=O)O)[C@@H](OS(=O)(=O)O)[C@H](O)[C@H]4OS(=O)(=O)O)[C@H](O)[C@H]3OS(=O)(=O)O)[C@H](O)[C@H]2OS(=O)(=O)O)[C@H](O)[C@H]1OS(=O)(=O)O | K [11]: 4.2 10^4/M/s; pKd [12]: 4.71; K [13]: 2.1 10^-1/s; pKd [14]: 5.24; Activity [15]: 19%; inhibition [16]: Active; inhibition (INH) [17]: 40%; pKd [18]: 5.03; pKd [19]: 5.78; K [20]: 3.16 10^5/M/s; K [21]: 1.26 10^5/M/s; K [22]: 2.4 10^-1/s; inhibition (INH) ([10]; at 10 to 50 µg/mL): 34%; inhibition (INH) [23]: 40%; pKd [24]: 4.73; K [25]: 2.96 10^-1/s; Activity [26]: Active |
| 64% | 80% | 23% | 57% | 15% | 81% | 58% | 62% | 62% | NCCOCCO[C@@H]1O[C@@H](C(=O)O)[C@@H](OS(=O)(=O)O)[C@H](O)[C@H]1O | – |
| 92% | 80% | 36% | 78% | 30% | 86% | 75% | 83% | 63% | NCCOCCO[C@@H]1O[C@@H](C(=O)O)[C@@H](O[C@@H]2O[C@@H](C(=O)O)[C@@H](O[C@@H]3O[C@@H](C(=O)O)[C@@H](OS(=O)(=O)O)[C@H](O)[C@H]3O)[C@H](O)[C@H]2O)[C@H](O)[C@H]1O | – |
